Several values for one entry are separate records, joined by “and”; a condition that tells them apart may be missing. Identical values can stand only once. Toxic doses and inconclusive results are not listed.
Test system: L1210 leukemia ip in BDF1 mice, survival T/C
Assay: NCI In Vivo Anticancer Drug Screen. Data for tumor model L1210 Leukemia (intraperitoneal) in B6D2F1 (BDF1) mice
Conditions: endpoint: mean survival time, higher = longer survival
In short: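 Tumor was transplanted into mice, which were then dosed with test compound or vehicle alone. Survival was recorded for each group, and the treated figure was expressed relative to the control figure.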

[1] = dose: 100.0 mg/kg/injection, schedule: Q01DX001 (ip), vehicle: saline with Tween-80
[2] = dose: 100.0 mg/kg/injection, schedule: Q01DX009 (ip), vehicle: saline with Tween-80
[3] = dose: 200.0 mg/kg/injection, schedule: Q01DX009 (ip), vehicle: saline with Tween-80
[4] = dose: 400.0 mg/kg/injection, schedule: Q01DX009 (ip), vehicle: saline with Tween-80
[5] = dose: 100.0 mg/kg/injection, schedule: Q01DX009 (ip), vehicle: Klucel (hydroxypropylcellulose) (HPC)
[6] = dose: 200.0 mg/kg/injection, schedule: Q01DX009 (ip), vehicle: Klucel (hydroxypropylcellulose) (HPC)
[7] = dose: 400.0 mg/kg/injection, schedule: Q01DX009 (ip), vehicle: Klucel (hydroxypropylcellulose) (HPC)
[8] = dose: 100.0 mg/kg/injection, schedule: Q04DX002 (ip), vehicle: saline
[9] = dose: 100.0 mg/kg/injection, schedule: Q04DX003 (ip), vehicle: saline with Tween-80
[10] = dose: 200.0 mg/kg/injection, schedule: Q04DX003 (ip), vehicle: saline with Tween-80
[11] = dose: 400.0 mg/kg/injection, schedule: Q04DX003 (ip), vehicle: saline with Tween-80
[12] = dose: 25.0 mg/kg/injection, schedule: Q01DX009 (ip), vehicle: saline with Tween-80

CCOC(=O)c1ccc(NC(=O)Oc2ccc(-c3ccccc3)cc2)cc1
T/C [1]: 96 % of control | T/C [2]: 97 % of control and 102 % of control | T/C (dose: 100.0 mg/kg/injection, schedule: Q04DX002 (ip), vehicle: saline with Tween-80): 94 % of control and 100 % of control | T/C (dose: 200.0 mg/kg/injection, schedule: Q01DX001 (ip), vehicle: saline with Tween-80): 88 % of control | T/C [3]: 92 % of control and 97 % of control | T/C (dose: 200.0 mg/kg/injection, schedule: Q04DX002 (ip), vehicle: saline with Tween-80): 101 % of control and 88 % of control | T/C (dose: 400.0 mg/kg/injection, schedule: Q01DX001 (ip), vehicle: saline with Tween-80): 96 % of control | T/C [4]: 93 % of control and 100 % of control | T/C (dose: 400.0 mg/kg/injection, schedule: Q04DX002 (ip), vehicle: saline with Tween-80): 97 % of control

C(=N/Nc1ccccn1)/c1cccnc1
T/C [1]: 112 % of control

COS(=O)(=O)c1ccc(Cl)c([N+](=O)[O-])c1
T/C (dose: 0.38 mg/kg/injection, schedule: Q01DX009 (ip), vehicle: saline): 97 % of control | T/C (dose: 0.75 mg/kg/injection, schedule: Q01DX009 (ip), vehicle: saline): 102 % of control | T/C (dose: 0.75 mg/kg/injection, schedule: Q04DX003 (ip), vehicle: saline with Tween-80): 101 % of control | T/C (dose: 1.5 mg/kg/injection, schedule: Q01DX009 (ip), vehicle: saline): 97 % of control | T/C (dose: 1.5 mg/kg/injection, schedule: Q04DX003 (ip), vehicle: saline with Tween-80): 90 % of control

O=C(NCc1cccnc1)c1ccccc1N=Cc1cc(Cl)cc(Cl)c1O
T/C [5]: 98 % of control | T/C [6]: 96 % of control | T/C [7]: 89 % of control

CN1CCC(=O)N1
T/C (dose: 100.0 mg/kg/injection, schedule: Q01DX001 (ip), vehicle: saline): 100 % of control | T/C (dose: 200.0 mg/kg/injection, schedule: Q01DX001 (ip), vehicle: saline): 100 % of control | T/C (dose: 400.0 mg/kg/injection, schedule: Q01DX001 (ip), vehicle: saline): 98 % of control

CCN(CC)Cc1ccccc1COC(=O)c1cccc(Br)c1
T/C (dose: 50.0 mg/kg/injection, schedule: Q04DX002 (ip), vehicle: Klucel (hydroxypropylcellulose) (HPC)): 111 % of control | T/C (dose: 100.0 mg/kg/injection, schedule: Q04DX002 (ip), vehicle: Klucel (hydroxypropylcellulose) (HPC)): 118 % of control | T/C (dose: 200.0 mg/kg/injection, schedule: Q04DX002 (ip), vehicle: Klucel (hydroxypropylcellulose) (HPC)): 103 % of control

CC(C)C(N)C(=O)NCCCCC(N)C(=O)O (stereo not drawn)
T/C (dose: 25.0 mg/kg/injection, schedule: Q04DX002 (ip), vehicle: saline): 103 % of control | T/C (dose: 50.0 mg/kg/injection, schedule: Q04DX002 (ip), vehicle: saline): 103 % of control | T/C [8]: 100 % of control

CCCCCCCCCCCSCCCCCCCCSCCCCCCCCCCC
T/C (dose: 100.0 mg/kg/injection, schedule: Q01DX001 (ip), vehicle: Klucel (hydroxypropylcellulose) (HPC)): 87 % of control | T/C (dose: 200.0 mg/kg/injection, schedule: Q01DX001 (ip), vehicle: Klucel (hydroxypropylcellulose) (HPC)): 92 % of control | T/C (dose: 400.0 mg/kg/injection, schedule: Q01DX001 (ip), vehicle: Klucel (hydroxypropylcellulose) (HPC)): 91 % of control

Cn1ccccc1=O
T/C [8]: 104 % of control | T/C (dose: 200.0 mg/kg/injection, schedule: Q04DX002 (ip), vehicle: saline): 98 % of control | T/C (dose: 400.0 mg/kg/injection, schedule: Q04DX002 (ip), vehicle: saline): 104 % of control

CC1=CC(O)CCC1 (stereo not drawn)
T/C [9]: 104 % of control | T/C [10]: 109 % of control | T/C [11]: 93 % of control

CCOC(=O)c1ccc(NC(=O)Nc2cccc(C(C)=O)c2)cc1
T/C [5]: 95 % of control | T/C [6]: 93 % of control | T/C [7]: 101 % of control

CCCCNc1c(C(=O)OCC)c[nH]c(=O)c1C(C)=O
T/C (dose: 100.0 mg/kg/injection, schedule: Q04DX003 (ip), vehicle: Klucel (hydroxypropylcellulose) (HPC)): 97 % of control | T/C (dose: 200.0 mg/kg/injection, schedule: Q04DX003 (ip), vehicle: Klucel (hydroxypropylcellulose) (HPC)): 97 % of control | T/C (dose: 400.0 mg/kg/injection, schedule: Q04DX003 (ip), vehicle: Klucel (hydroxypropylcellulose) (HPC)): 87 % of control

CCOc1ccc(Br)cc1/C=C(\C#N)c1ccc([N+](=O)[O-])cc1
T/C [12]: 92 % of control

O=C(COc1ccc(Cl)cc1Cl)NC(O)C(Cl)(Cl)Cl (stereo not drawn)
T/C [2]: 94 % of control | T/C [9]: 100 % of control | T/C [3]: 87 % of control | T/C [10]: 97 % of control | T/C [4]: 89 % of control | T/C [11]: 94 % of control

CCOC(=O)NC(=S)n1ncnc1N
T/C (dose: 6.25 mg/kg/injection, schedule: Q01DX009 (ip), vehicle: saline with Tween-80): 105 % of control | T/C (dose: 12.5 mg/kg/injection, schedule: Q01DX009 (ip), vehicle: saline with Tween-80): 97 % of control | T/C [12]: 100 % of control | T/C (dose: 35.0 mg/kg/injection, schedule: Q01DX009 (ip), vehicle: saline with Tween-80): 86 % of control

COc1ccc(C)cc1NC(=O)OCCOc1ccc(Cl)c(C)c1
T/C (dose: 50.0 mg/kg/injection, schedule: Q01DX009 (ip), vehicle: saline with Tween-80): 93 % of control | T/C [2]: 90 % of control | T/C [3]: 93 % of control

CC(C)(C)C1CCCC(NC(=O)N(CCCl)N=O)C1 (stereo not drawn)
T/C (dose: 6.0 mg/kg/injection, schedule: Q01DX001 (ip), vehicle: other): 111 % of control | T/C (dose: 12.0 mg/kg/injection, schedule: Q01DX001 (ip), vehicle: other): 108 % of control | T/C (dose: 46.0 mg/kg/injection, schedule: Q01DX001 (ip), vehicle: other): 153 % of control | T/C (dose: 93.0 mg/kg/injection, schedule: Q01DX001 (ip), vehicle: other): 187 % of control | T/C (dose: 187.0 mg/kg/injection, schedule: Q01DX001 (ip), vehicle: other): 238 % of control | T/C (dose: 250.0 mg/kg/injection, schedule: Q01DX001 (ip), vehicle: other): 218 % of control | T/C (dose: 375.0 mg/kg/injection, schedule: Q01DX001 (ip), vehicle: other): 164 % of control | T/C (dose: 500.0 mg/kg/injection, schedule: Q01DX001 (ip), vehicle: other): 118 % of control

COC1OCC(NC(=O)C(F)(F)F)C(OC(C)=O)C1OC(C)=O (stereo not drawn)
T/C (dose: 50.0 mg/kg/injection, schedule: Q01DX001 (ip), vehicle: carboxymethylcellulose (CMC)): 94 % of control | T/C (dose: 100.0 mg/kg/injection, schedule: Q01DX001 (ip), vehicle: carboxymethylcellulose (CMC)): 100 % of control | T/C (dose: 200.0 mg/kg/injection, schedule: Q01DX001 (ip), vehicle: carboxymethylcellulose (CMC)): 105 % of control | T/C (dose: 400.0 mg/kg/injection, schedule: Q01DX001 (ip), vehicle: carboxymethylcellulose (CMC)): 100 % of control

Source: PubChem BioAssay AID248 (DTP/NCI, 2004)
